pIC50: −log10 of the molar value.
Biological target: Cys-TrxR (recombinant E. coli thioredoxin reductase) (Escherichia coli, UniProt P0A9P4)
Assay: Trx-dependent reduction assay
Type: biochemical

Chain of Cys-TrxR (recombinant E. coli thioredoxin reductase) (P0A9P4 2-321): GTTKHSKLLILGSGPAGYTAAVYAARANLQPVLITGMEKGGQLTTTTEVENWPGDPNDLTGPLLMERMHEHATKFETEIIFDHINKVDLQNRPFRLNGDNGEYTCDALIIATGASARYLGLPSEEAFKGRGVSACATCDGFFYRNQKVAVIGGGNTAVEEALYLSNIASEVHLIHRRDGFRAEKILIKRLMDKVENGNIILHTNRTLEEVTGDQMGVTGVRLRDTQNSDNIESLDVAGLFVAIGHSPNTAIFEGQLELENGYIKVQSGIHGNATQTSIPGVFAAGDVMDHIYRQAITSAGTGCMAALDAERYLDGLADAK

| SMILES | pIC50 |
| --- | --- |
| N#CSO [HOSCN] | 5.03 |
| N#C[Se]O [HOSeCN] | 5.37 |
